Laboratory results reported in PubChem BioAssay (NCI).
“And” between values parts separate entries of the source, which are not always exact repeats. Identical values can stand only once.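 Step 1: Grow cells in 96-well plates. Step 2: Expose to compound for 48 hours at 5 concentrations. Step 3: Interpolate endpoints linearly; if unreached, use highest concentration. GI50 = concentration required for 50% inhibition of growth. TGI: concentration producing complete growth inhibition.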

Columns and labels:
Assay in all cases: NCI anticancer screen, dose series, 48 h
CAKI-1 renal = system: CAKI-1 renal
EKVX NSCLC = system: EKVX NSCLC
KM12 colon = system: KM12 colon
M14 melanoma = system: M14 melanoma
NCI-H226 lung = system: NCI-H226 lung
OVCAR-8 ovarian = system: OVCAR-8 ovarian
SNB-75 CNS = system: SNB-75 CNS
T-47D breast = system: T-47D breast
U251 CNS = system: U251 CNS
UACC-62 melanoma = system: UACC-62 melanoma

Compound	GI50 (CAKI-1 renal)	TGI (CAKI-1 renal)	GI50 (EKVX NSCLC)	TGI (EKVX NSCLC) [µM]	GI50 (KM12 colon)	TGI (KM12 colon)	GI50 (M14 melanoma)	TGI (M14 melanoma) [µM]	GI50 (NCI-H226 lung)	TGI (NCI-H226 lung) [µM]	GI50 (OVCAR-8 ovarian)	TGI (OVCAR-8 ovarian) [µM]	GI50 (SNB-75 CNS)	TGI (SNB-75 CNS) [µM]	GI50 (T-47D breast)	TGI (T-47D breast)	GI50 (U251 CNS)	TGI (U251 CNS) [µM]	TGI (UACC-62 melanoma) [µM]	GI50 (UACC-62 melanoma)
CO[C@]12C=C/C(=C(/C(=O)OCc3cccnc3)C(=O)CCCCCCCC[C@@]3(OC)C=C/C(=C(/C(=O)OCc4cccnc4)C(=O)CCCCCCCC1)O3)O2	1.89 µM	> 50 µM	1.97 µM	> 50	1.03 µM	2.38 µM	1.2 µM	3.79	1.02 µM	1.94	0.959 µM	> 50	1.18 µM	4.05	2.21 µM	> 50 µM	1.66 µM	8.58	–	–
CC(C)=CCC1=C(OCC(=O)O)C(=O)c2ccccc2C1=O	–	> 100 µM	–	> 100	–	> 100 µM	–	> 100	–	90.1	–	> 100	–	64.7	–	> 100 µM	–	> 100	37.7	–
COC(C(=O)C(O)C(C)O)C1Cc2cc3cc(OC4CC(OC5CC(O)C(O)C(C)O5)C(O)C(C)O4)c(C)c(O)c3c(O)c2C(=O)C1OC1CC(OC2CC(O)C(OC3CC(C)(O)C(O)C(C)O3)C(C)O2)C(O)C(C)O1 (stereo not given)	0.0112 µg/mL and 0.000362 µg/mL	0.0484 µg/mL and 0.0414 µg/mL	0.0188 µg/mL and 0.000265 µg/mL	–	0.0112 µg/mL and 0.000667 µg/mL	0.0428 µg/mL and 0.0723 µg/mL	0.047 µg/mL and 0.0293 µg/mL	–	0.0112 µg/mL and 0.000196 µg/mL	–	0.0112 µg/mL and 0.000822 µg/mL	–	0.0112 µg/mL and 0.000782 µg/mL	–	0.0175 µg/mL	15.8 µg/mL	0.0112 µg/mL and 0.000643 µg/mL	–	–	0.0112 µg/mL and 0.00054 µg/mL
Nc1ccccc1NC(=O)c1ccc(CN2CCC/C(=C\c3ccccn3)C2=O)cc1	1.41 µM	9.19 µM	3.75 µM	> 100	1.53 µM	> 100 µM	1.05 µM	> 100	2.62 µM	9.59	0.878 µM	> 100	1.06 µM	6.05	0.806 µM	9.59 µM	1.83 µM	> 100	2.35	0.411 µM
Cc1[nH]c(C(=O)Nc2ccccc2OC2CCNCC2)c(Cl)c1Cl	0.781 µM	2.11 µM	1.09 µM	3.86	1.28 µM	3.16 µM	0.95 µM	1.9	0.966 µM	1.96	1.07 µM	2.4	0.56 µM	1.19	0.987 µM	2.09 µM	0.849 µM	1.61	1.6	0.895 µM
CCC(CCC(C)C1CCC2C3CC=C4CC(OC5OC(CO)C(O)C(O)C5O)CCC4(C)C3CCC12C)C(C)C (stereo not given)	–	> 100 µM	–	> 100	–	> 100 µM	–	> 100	–	> 100	–	> 100	–	–	–	> 100 µM	–	> 100	> 100	–
NC(=S)N/N=C/c1ccc(N)cn1	–	> 10 µM	–	> 10	–	> 10 µM	–	> 7.38	–	> 10	–	> 10	–	> 10	–	> 10 µM	–	> 10	> 10	–
Clc1cc2c(nn1)Nc1ccccc1S2	> 100 µM	> 100 µM	35.6 µM	> 100	> 100 µM	> 100 µM	> 100 µM	> 100	> 100 µM	> 100	> 100 µM	> 100	> 100 µM	> 100	> 100 µM	> 100 µM	> 100 µM	> 100	> 100	> 100 µM
